Measured values as given in publication PMC9402926, “Synthetic short-chain peptide analogues of H1 relaxin lack affinity for the RXFP1 receptor and relaxin-like bioactivity. Clues to a better understanding of relaxin agonist design” (Frontiers in Pharmacology, 2022).

What was measured:
[1] = tested on: RXFP1-BP (ectodomain of human RXFP1 fused to the single transmembrane and cytoplasmic region of CD8); assay: Competition binding with europium-labelled H2 relaxin in HEK-293T cells stably expressing RXFP1-BP; conditions: 10 µM competing peptide; 1 nm europium-labeled H2 relaxin; whole cells, 96 well plates; triplicate points, 2 independent experiments
Source text: Cell culture for ligand-receptor binding assays—Human embryonic kidney cells (HEK-293T) stably expressing RXFP1-BP ([Halls et al., 2005]) were used for competition binding experiments using europium-labelled H2 relaxin, as described ([Shabanpoor et al., 2012]). This construct contains the ectodomain of human RXFP1 fused to the single transmembrane and cytoplasmic region of CD8. This ectodomain-only construct has a higher affinity for single chain H2 relaxin peptides and is used as a surrogate assay for binding affinity. Assays were performed in whole cell 96 well plates assays with a single concentration of the europium-labeled H2 relaxin (1 nm) in the presence or absence of increasing concentrations of the competing peptides. Non-specific binding was assessed using 1 µM of serelaxin. Each concentration point was assessed in triplicate in 2 independent experiments. The binding data were analyzed using GraphPad Prism 9 and expressed as mean ± SEM. They were fitted using a one site binding model.

RXFP1 [2] = assay: ERK1/2 phosphorylation in TGF-β1-induced myofibroblasts from NIH-3T3 fibroblasts expressing RXFP1, Western blot; type: cell-based; conditions: mouse myofibroblasts (TGF-β 48 h), 30 and 90 min, 3 independent experiments
Procedure: Cell culture for ERK1/2 phosphorylation assay - The RXFP1 downstream ERK1/2 phosphorylation pathway was tested on myofibroblasts using a method based on that described by [Hossain et al. (2016)], with minor modifications. Mouse NIH-3T3 fibroblasts (ATCC, Manassas, VA, United States) expressing RXFP1 ([Sassoli et al., 2013]) were cultured in DMEM supplemented with 10% fetal bovine serum (FBS), 2 mm glutamine, 250 U/ml penicillin G and 250 μg/ml streptomycin, in a humidified atmosphere with 5% CO2 at 37°C. They were induced to myofibroblasts in DMEM containing 2% FBS and 2 ng/ml human TGF-β1 (PeproTech, Rocky Hill, NJ, United States) for 12, 24, 48 and 72 h ([Sassoli et al., 2013]). Myofibroblasts were then incubated for 30 or 90 min with either serelaxin (17 nM), or B7-33 (1.7 μM), or the H1 peptides 6 and 7 (1.7 μM), selected among those which had shown a minimal ability to bind RXFP1 in the competition binding experiments. Untreated myofibroblasts were used as controls. To verify fibroblast-to-myofibroblast transition and ERK1/2 phosphorylation, cells were lysed in cold buffer composed of (mM): 10 Tris/HCl pH 7.4, 10 NaCl, 1.5 MgCl2, 2 Na2EDTA, 1% Triton X-100, added with 10x Sigmafast Protease Inhibitor Cocktail tablets and […] Na3VO4 to inhibit endogenous phosphatases. Total protein content was measured spectrophotometrically using micro-BCA Protein Assay Kit (Pierce). Sixty μg of total proteins were electrophoresed by SDS–PAGE and blotted onto PVDF membranes (Millipore, Bedford, MA, United States). […] Specific bands were detected using appropriate peroxidase-labeled secondary antibodies (1:15,000; Vector, Burlingame, CA, United States) and enhanced chemiluminescent substrate (ECL, Sigma-Aldrich). […]

[3] = target: RXFP1-BP (ectodomain of human RXFP1 fused to the single transmembrane and cytoplasmic region of CD8); assay: competition binding with europium-labelled ligand on whole cells; whole cells in 96 well plates; HEK-293T stably expressing RXFP1-BP; single concentration of europium-labeled H2 relaxin (1 nm as printed) with or without increasing concentrations of the competing peptides; non-specific binding with 1 µM serelaxin; triplicates, 2 independent experiments; one site binding model
[4] = i.v. administration; ref Chen et al., 1993; cited from earlier work
Procedure: Since recombinant human H2 relaxin (RLX), later termed serelaxin, was made available as clinical-grade drug ([Stults et al., 1990]), several clinical trials have been performed to explore its therapeutic potential, particularly as cardiovascular and anti-fibrotic agent ([Bani 2020]; [Samuel and Bennett 2021]; [Sassoli et al., 2022]). The last RELAX-AHF-2 phase III trial was performed under the auspices of Novartis Europharm Ltd., owner of the serelaxin patent, to assess its efficacy in patients with heart failure. Regrettably, in spite of encouraging theoretical premises and pre-clinical evide ...

RXFP1 [5] = assay: cAMP generation in human monocytic THP-1 cells (RXFP1 downstream pathway), Direct cAMP ELISA; type: cell-based; conditions: serelaxin 17 nm, 15 min, IBMX 100 μM, 3 independent experiments
Procedure: Cell culture for cAMP assay—The RXFP1 downstream cAMP pathway was tested on human monocytic THP-1 cells (ECACC, Salisbury, UK) cultured in suspension in RPMI medium containing 10% foetal bovine serum, 0.05 mm 2-mercaptoethanol, 250 U/ml penicillin G and 250 μg/ml streptomycin, in a 5% CO2 atmosphere at 37°C. Cells (5 × 10^5) were placed in a 24-well plate, added with IBMX (100 μM) to prevent cAMP catabolism and then incubated with the different stimulants. As positive controls, either serelaxin (17 nm) and B7-33 (17, 170, 1700 nm) were used. The H1 peptides 4, 6 and 7, selected among those which had shown a minimal ability to bind RXFP1 in the competition binding experiments, were also used at 17, 170 and 1700 nm final concentration. The cAMP assay was carried out 15 min after RXFP1 stimulation, coinciding with the second sustained cAMP surge ([Nguyen et al., 2003]; [Bani et al., 2007]). The adenylate cyclase activator forskolin (100 μM) was used to determine the maximal cAMP levels. Triplicate cAMP measurements were performed by a Direct cAMP ELISA Kit (Enzo, Milan, Italy). […] The values of cAMP were normalized by the amount of proteins, measured by the micro-BCA Protein Assay Kit (Pierce, IL, United States) and expressed as mg/ml. For statistical purposes, 3 independent experiments were performed.

Row | percent competition of Eu-H2 relaxin binding at 10 µM [3] [%] | Substance | competition of Eu-H2 relaxin binding [1] [%] | ERK1/2 phosphorylation (RXFP1 [2]; peptide 1.7 μM) | further results
1 |  | [Ser^10,22]Cyclo[Pra^14, LysN3 ^18]H1RLXB(1–23) [compound 4] | ~20 |  | 
2 |  | [Ser^10,22]Cyclo[Pra^17, LysN3 ^21]H1RLXB(1–23) [compound 6] | ~20 | neither of the H1 peptides 6 and 7 were capable of reproducing the effects of the authentic hormone | 
3 | 20 | [Ser10,22]Cyclo[Pra17, LysN3 21]H1RLXB(1-23) (peptide) |  |  | 
4 |  | serelaxin |  |  | ERK1/2 phosphorylation (RXFP1 [2]; serelaxin 17 nM): statistically significant increase in ERK1/2 phosphorylation; half-life [4]: ~2 h; elevation of cAMP (RXFP1 [5]): statistically significant elevation of cAMP
5 | 20 | [Ser10,22]Cyclo[LysN3 17, Pra21]H1RLXB(1-23) (peptide) |  |  | 
6 |  | [Ser^10,22]Cyclo[LysN3 ^17, Pra^21]H1RLXB(1–23) [compound 7] | ~20 | neither of the H1 peptides 6 and 7 were capable of reproducing the effects of the authentic hormone | 
